Data published in patent US20100267561A1, “HERBICIDAL PYRIDAZINONE DERIVATIVES” (priority 2007, published 2010).
Read-outs that look alike come from different tables or passages of the source.

Legend:
Type in all cases: in vivo
[1] = system: barnyardgrass (Echinochloa crus-galli); assay: Test A pre-/postemergence plant response; conditions: Echinochloa crus-galli, 240 h, read-out: Plant response rating, Barnyardgrass; for pest or weed control at 31 g/ha: 31 g ai/ha; for pest or weed control at 125 g/ha: 125 g ai/ha
How it was run: (§1)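 Seeds were planted in blended loam soil and sand, then treated preemergence by directed soil spray. At that time, emerged plants (one- to two-leaf, 2–10 cm) received postemergence applications of the same surfactant-containing formulation. Injury was assessed visually on a 0–100 scale after approximately 10 days.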

corn (Zea mays) = assay: Test A pre-/postemergence plant response; conditions: Zea mays, 240 h; for Corn plant response rating (crop injury, 0 = no effect, 100 = complete kill) at 31 g/ha: 31 g ai/ha; for Corn plant response rating (crop injury, 0 = no effect, 100 = complete kill) at 125 g/ha: 125 g ai/ha
How it was run: as §1

[2] = system: giant foxtail (Setaria faberi); assay: Test A pre-/postemergence plant response; conditions: Setaria faberi, 240 h, read-out: Plant response rating, Foxtail, Giant; for pest or weed control at 31 g/ha: 31 g ai/ha; for pest or weed control at 125 g/ha: 125 g ai/ha
How it was run: as §1

[3] = system: large crabgrass (Digitaria sanguinalis); assay: Test A pre-/postemergence plant response; conditions: Digitaria sanguinalis, 240 h, read-out: Plant response rating, Crabgrass, Large; for pest or weed control at 31 g/ha: 31 g ai/ha; for pest or weed control at 125 g/ha: 125 g ai/ha
How it was run: as §1

[4] = system: pigweed (Amaranthus retroflexus); assay: Test A pre-/postemergence plant response; conditions: Amaranthus retroflexus, 240 h, read-out: Plant response rating, Pigweed; for pest or weed control at 31 g/ha: 31 g ai/ha; for pest or weed control at 125 g/ha: 125 g ai/ha
How it was run: as §1

[5] = system: wheat (Triticum aestivum); assay: Test A pre-/postemergence plant response; conditions: Triticum aestivum, 240 h, read-out: Plant response rating, Wheat; for plant injury at 31 g/ha: 31 g ai/ha; for plant injury at 125 g/ha: 125 g ai/ha
How it was run: as §1

[6] = system: eastern black (E.B.) nightshade (Solanum ptycanthum); assay: Test B pre-/postemergence plant response; conditions: Preemergence; for pest or weed control at 31 g/ha / pest or weed control at 62 g/ha: Solanum, pre-emergence, read-out: Plant response rating, Nightshade, E. B.; for pest or weed control at 31 g/ha: 31 g ai/ha; for pest or weed control at 62 g/ha: 62 g ai/ha, 0 to 100 scale, 0 no effect, 100 complete control
How it was run: (§2)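 Seeds were sown and sprayed preemergence, while plants at 2 to 18 cm (1- to 4-leaf stage) got postemergence sprays. Compounds were formulated in a non-phytotoxic solvent mixture with surfactant. After 13 to 15 days in a greenhouse, injury was rated visually against untreated controls, 0 (no effect) to 100 (complete control).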

[7] = system: green foxtail (Setaria viridis); assay: Test B pre-/postemergence plant response; conditions: for pest or weed control at 16 g/ha / pest or weed control at 31 g/ha / pest or weed control at 62 g/ha: Setaria viridis, read-out: Plant response rating, Foxtail, Green; for pest or weed control at 31 g/ha: 31 g ai/ha; for pest or weed control at 62 g/ha: 62 g ai/ha, 100 complete control
How it was run: as §2

[8] = system: barnyardgrass (Echinochloa crus-galli); assay: Test B flooded paddy test plant response; conditions: Echinochloa crus-galli, read-out: Plant response rating, Barnyardgrass; for pest or weed control at 62 g/ha: 62 g ai/ha; for pest or weed control at 250 g/ha: 250 g ai/ha
How it was run: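 Rice, umbrella sedge, ducksalad and barnyardgrass at 2-leaf stage; pots flooded to 3 cm, compounds applied into paddy water, depth held throughout. Greenhouse 13 to 15 days, then visual rating vs untreated controls on 0–100 scale (0 no effect, 100 complete control); dash means no test result.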

[9] = post-emergence, Postemergence, 0 to 100 scale (0 no effect, 100 complete control)
[10] = post-emergence, Postemergence, 0 to 100 scale, 0 no effect, 100 complete control
[11] = pre-emergence, Preemergence, 0 to 100 scale, 0 is no effect, 100 is complete control
[12] = pre-emergence, Preemergence, 0 to 100 scale (0 no effect, 100 complete control)
[13] = scale 0 to 100 (0 no effect, 100 complete control)
[14] = 8 g ai/ha, postemergence, 0-100 scale
[15] = Preemergence, 16 g ai/ha, scale 0 to 100
[16] = post-emergence, Postemergence, 16 g ai/ha, scale 0 to 100
[17] = post-emergence, Postemergence, scale 0 to 100
[18] = post-emergence, Postemergence, scale 0 to 100, 0 no effect
[19] = pre-emergence, Preemergence, scale 0 to 100 (0 no effect, 100 complete control)
[20] = pre-emergence, Preemergence, 0 to 100 scale, 0 no effect
[21] = Flood (flooded paddy test), scale 0 to 100, 0 no effect, 100 complete control

In the case of `Cc1nn(C)c(=O)c(-n2nc(-c3ccc(C(F)(F)F)cc3)cc2C)c1O` [Compound 75, 5-hydroxy-2,6-dimethyl-4-[5-methyl-3-[4-(trifluoromethyl)phenyl]-1H-pyrazol-1-yl]-3(2H)-pyridazinone], the pest or weed control at 31 g/ha [1, 9] was 10%, the pest or weed control at 125 g/ha [1, 10] was 90% and the pest or weed control at 31 g/ha [1, 11] was 0%. For the same compound, the pest or weed control at 125 g/ha [1, 12] was 80%, the Corn plant response rating (crop injury, 0 = no effect, 100 = complete kill) at 31 g/ha (corn (Zea mays); [9]) was 0% and the Corn plant response rating (crop injury, 0 = no effect, 100 = complete kill) at 125 g/ha (corn (Zea mays); [10]) was 90%. It also gave a Corn plant response rating (crop injury, 0 = no effect, 100 = complete kill) at 31 g/ha (corn (Zea mays); [11]) of 0%, a Corn plant response rating (crop injury, 0 = no effect, 100 = complete kill) at 125 g/ha (corn (Zea mays); [12]) of 0% and a pest or weed control at 31 g/ha [2, 9] of 50%. It also gave a pest or weed control at 125 g/ha [2, 10] of 80%, a pest or weed control at 31 g/ha [2, 11] of 20% and a pest or weed control at 125 g/ha [2, 12] of 80%. It also gave a pest or weed control at 31 g/ha [3, 9] of 20%, a pest or weed control at 125 g/ha [3, 10] of 80% and a pest or weed control at 31 g/ha [3, 11] of 0%. The pest or weed control at 125 g/ha [3, 12] was 40%, the pest or weed control at 31 g/ha [4, 9] was 0% and the pest or weed control at 125 g/ha [4, 10] was 0%. For the same compound, the pest or weed control at 31 g/ha [4, 11] was 0%, the pest or weed control at 125 g/ha [4, 12] was 0% and the plant injury at 31 g/ha [5, 9] was 10%. It also gave a plant injury at 125 g/ha [5, 10] of 70%, a plant injury at 31 g/ha [5, 11] of 0% and a plant injury at 125 g/ha [5, 12] of 20%. The “Nightshade, E. B. plant response rating” value ([6]; 8 g ai/ha, scale 0 to 100) was 0, the “Nightshade, E. B. plant response rating” value ([6]; 16 g ai/ha, scale 0 to 100) was 0 and the pest or weed control at 31 g/ha [6, 13] was 0%. The pest or weed control at 62 g/ha [6] was 0%, the “Foxtail, Green plant response rating” value [7, 14] was 0 and the “Foxtail, Green plant response rating” value ([7]; Preemergence, 8 g ai/ha, scale 0 to 100) was 0. The “Foxtail, Green plant response rating” value [7, 15] was 30, the pest or weed control at 16 g/ha [7, 16] was 40% and the pest or weed control at 31 g/ha [7, 17] was 80%. It also gave a pest or weed control at 62 g/ha [7, 18] of 95%, a pest or weed control at 31 g/ha [7, 19] of 50% and a pest or weed control at 62 g/ha [7, 20] of 80%. For the same compound, the pest or weed control at 62 g/ha [8, 21] was 0% and the pest or weed control at 250 g/ha [8, 21] was 0%.

Compound `Cc1cc(-c2ccc(Br)cc2)nn1-c1c(OC(=O)C2CC2)cnn(C(=O)C2CC2)c1=O` [Compound 80, 5-[3-(4-bromophenyl)-5-methyl-1H-pyrazol-1-yl]-1-(cyclopropylcarbonyl)-1,6-dihydro-6-oxo-4-pyridazinyl cyclopropanecarboxylate] has a pest or weed control at 31 g/ha [1, 9] of 100%, a pest or weed control at 125 g/ha [1, 10] of 100% and a pest or weed control at 31 g/ha [1, 11] of 0%. It also gave a pest or weed control at 125 g/ha [1, 12] of 100%, a Corn plant response rating (crop injury, 0 = no effect, 100 = complete kill) at 31 g/ha (corn (Zea mays); [9]) of 60% and a Corn plant response rating (crop injury, 0 = no effect, 100 = complete kill) at 125 g/ha (corn (Zea mays); [10]) of 100%. It also gave a Corn plant response rating (crop injury, 0 = no effect, 100 = complete kill) at 31 g/ha (corn (Zea mays); [11]) of 40%, a Corn plant response rating (crop injury, 0 = no effect, 100 = complete kill) at 125 g/ha (corn (Zea mays); [12]) of 60% and a pest or weed control at 31 g/ha [2, 9] of 90%. For the same compound, the pest or weed control at 125 g/ha [2, 10] was 100%, the pest or weed control at 31 g/ha [2, 11] was 80% and the pest or weed control at 125 g/ha [2, 12] was 100%. It also gave a pest or weed control at 31 g/ha [3, 9] of 60%, a pest or weed control at 125 g/ha [3, 10] of 100% and a pest or weed control at 31 g/ha [3, 11] of 10%. For the same compound, the pest or weed control at 125 g/ha [3, 12] was 100%, the pest or weed control at 31 g/ha [4, 9] was 0% and the pest or weed control at 125 g/ha [4, 10] was 0%. It also gave a pest or weed control at 31 g/ha [4, 11] of 0%, a pest or weed control at 125 g/ha [4, 12] of 0% and a plant injury at 31 g/ha [5, 9] of 30%. The plant injury at 125 g/ha [5, 10] was 70%, the plant injury at 31 g/ha [5, 11] was 20% and the plant injury at 125 g/ha [5, 12] was 80%. For the same compound, the “Nightshade, E. B. plant response rating” value ([6]; 8 g ai/ha, scale 0 to 100 (0 no effect, 100 complete control)) was 0, the pest or weed control at 31 g/ha [6, 13] was 0% and the pest or weed control at 62 g/ha [6] was 0%. The “Foxtail, Green plant response rating” value [7, 14] was 50, the “Foxtail, Green plant response rating” value ([7]; Preemergence, 8 g ai/ha, scale 0 to 100 (0 no effect, 100 complete control)) was 0 and the “Foxtail, Green plant response rating” value [7, 15] was 98. The pest or weed control at 16 g/ha [7, 16] was 60%, the pest or weed control at 31 g/ha [7, 17] was 100% and the pest or weed control at 62 g/ha [7, 18] was 100%. For the same compound, the pest or weed control at 31 g/ha [7, 19] was 100%, the pest or weed control at 62 g/ha [7, 20] was 100% and the pest or weed control at 62 g/ha [8, 21] was 0%. The pest or weed control at 125 g/ha ([8]; Flood (flooded paddy test), 125 g ai/ha, scale 0 to 100, 0 no effect, 100 complete control) was 0%, the pest or weed control at 250 g/ha [8, 21] was 0% and the pest or weed control at 31 g/ha ([8]; Flood, 31 g ai/ha, scale 0 to 100) was 0%.
